Experimental data reported in patent publication US20260256731A1, “RETINAL VASODILATOR AND PHARMACEUTICAL COMPOSITION” (TEIKYO UNIVERSITY, priority 2022, published 2026).
Read-outs that look alike come from different tables or passages of the source. Values belong to the molecule of their own block, whether it stands above or below them.

Assays:
retinal blood vessel = settings: cited from earlier work
rat mesenteric artery = settings: pre-contracted with phenylephrine; vascular endothelium-dependent; cited from earlier work
rat aorta = settings: pre-contracted with phenylephrine; vascular endothelium-independent; cited from earlier work
porcine retinal artery = assay: Retinal vasodilation test using porcine retinal extraction artery; format: cell-based, pig
Procedure: Pigs aged 8 to 12 weeks were euthanized. Immediately after euthanization, the eyeballs were excised. A retinal artery was separated from the excised eyeballs (Nagaoka et al., Invest Ophthalmol Vis Sci. 2007 February; 48(2):825-32.). An anterior eye part and a vitreous body were carefully taken out with an anatomical microscope. A posterior eye part was placed in an ice-cold dissection chamber containing a physiological saline solution (PSS: 145.0 mM NaCl, 4.7 mM KCl, 2.0 mM CaCl2), 1.17 mM MgSO4, 1.2 mM NaH2PO4, 5.0 mM glucose, 2.0 mM pyruvic acid, 0.02 mM EDTA, and 3.0 mM [3-(N-morpholino) propanesulfonic acid] (MOPS)) to which 1% albumin was added. A single secondary retinal artery (in-situ inner diameter: 90 to 130 μm, length: 0.6 to 1.0 mm) was carefully dissected using a Dumont microdissection forceps (Fine Science Tools, Inc., Foster City, CA) under observation with a stereomicroscope (model SZX12; Olympus, Melville, NY). After carefully removing the remaining nerve tissue and connective tissue, an artery was transferred to a Lucite-made blood vessel chamber into which a PSS-albumin solution equilibrated with air at room temperature was added for cannula insertion. A glass micro pipette (outer diameter of distal end: 30 to 40 μm) filled with the PSS-albumin solution was used to cannulate one end of the artery, and the outside of the artery was firmly tied to a pipette with 11-0 ophthalmic suture (Alcon, Fort Worth, TX). The other end of the blood vessel was cannulated with a second micro pipette and fixed with a suture. After the cannula insertion, the blood vessel and the pipette were transferred to the stage of an inverted microscope (model CKX41, Olympus); and a video camera (Sony DXC-190, Labtek, Campbell, CA), a video micrometer (Cardiovascular Research Institute, Texas A&M System Health Science Center, College Station, TX), and a data collection system (PowerLab, ADInstruments, Colorado Springs, CO) were connected to each other. Thereafter, the inner diameter was continuously measured and recorded during the experiment. The micro pipette was connected to an independent pressure reservoir (a 30 mL glass syringe). The blood vessel was pressurized to a lumen pressure of 55 cm H2O (40 mmHg) by adjusting the height of the reservoir.
The cannula-inserted arteriole was immersed in PSS at 36° C. to 37° C. to generate a basal tone. […] After the control reaction was terminated, the blood vessel was washed with PSS, and the basal tone was re-generated. […]
(§1) The blood vessel was relaxed with EDTA (1 mM)-calcium-free PSS, and the maximum diameter was obtained at a lumen pressure of 55 cmH2O. The change in diameter of the blood vessel in response to nobiletin was standardized by the maximum vasodilation and expressed as a percentage with respect to the maximum vasodilation. […]

[1] = test system: porcine retinal artery denuded of endothelium; assay: Retinal vasodilation test using porcine retinal extraction artery denuded of endothelium (CHAPS); format: cell-based, pig; settings: n=11, FIG. 3 (Example 3)
Procedure: (§2) Pigs aged 8 to 12 weeks were euthanized. Immediately after euthanization, the eyeballs were excised. A retinal artery was separated from the excised eyeballs (Nagaoka et al., Invest Ophthalmol Vis Sci. 2007 February; 48(2):825-32.). An anterior eye part and a vitreous body were carefully taken out with an anatomical microscope. A posterior eye part was placed in an ice-cold dissection chamber containing a physiological saline solution (PSS: 145.0 mM NaCl, 4.7 mM KCl, 2.0 mM CaCl2), 1.17 mM MgSO4, 1.2 mM NaH2PO4, 5.0 mM glucose, 2.0 mM pyruvic acid, 0.02 mM EDTA, and 3.0 mM [3-(N-morpholino) propanesulfonic acid] (MOPS)) to which 1% albumin was added. A single secondary retinal artery (in-situ inner diameter: 90 to 130 μm, length: 0.6 to 1.0 mm) was carefully dissected using a Dumont microdissection forceps (Fine Science Tools, Inc., Foster City, CA) under observation with a stereomicroscope (model SZX12; Olympus, Melville, NY). […] Thereafter, the inner diameter was continuously measured and recorded during the experiment. […]
The blood vessel was relaxed with EDTA (1 mM)-calcium-free PSS, and the maximum diameter was obtained at a lumen pressure of 55 cmH2O. The change in diameter of the blood vessel in response to nobiletin was standardized by the maximum vasodilation and expressed as a percentage with respect to the maximum vasodilation.

[2] = test system: porcine retinal artery treated with ODQ; assay: Retinal vasodilation test using porcine retinal extraction artery treated with ODQ (guanylate cyclase inhibitor); format: cell-based, pig
Procedure: as §2, with “added.” for “added. A single secondary retinal artery (in-situ inner diameter: 90 to 130 μm, length: 0.6 to 1.0 mm) was carefully dissected using a Dumont microdissection forceps (Fine Science Tools, Inc., Foster City, CA) under observation with a stereomicroscope (model SZX12; Olympus, Melville, NY).”
as §1
In the same manner as in Example 1, the porcine retinal extraction artery was treated with ODQ, and the role of guanylate cyclase in the retinal vasodilating effect of nobiletin was evaluated (n=7).

rat pulmonary artery = settings: cited from earlier work

Molecule: CC#CCC(C)[C@H](O)/C=C/[C@@H]1[C@H]2c3cccc(CCCC(=O)O)c3O[C@H]2C[C@H]1O (mixture of isomers) [Beraprost]
- Maximum vasodilation rate (retinal blood vessel; concentration 10^-7M): 70%

Molecule: O=C1CCc2cc(OCCCCc3nnnn3C3CCCCC3)ccc2N1 [Cilostazol]
- Maximum vasodilation rate (retinal blood vessel; concentration 10^-5M): 40%

- retinal vasodilating effect after treating the blood vessel with ODQ ([2]; ODQ 0.1 μM, 30 minutes, FIG. 1 (Example 1)): suppressed
- retinal vasodilating effect after addition of ODQ ([2]; n=7, FIG. 4 (Example 4)): suppressed
Molecule: COc1ccc(-c2cc(=O)c3c(OC)c(OC)c(OC)c(OC)c3o2)cc1OC [Nobiletin, 2-(3,4-Dimethoxyphenyl)-5,6,7,8-tetramethoxychromen-4-one]
- vasodilating action (rat mesenteric artery): vasodilating action
- vasodilating action (rat aorta): vasodilating action
- retinal vasodilating effect compared with positive control SNP (porcine retinal artery; FIG. 1 (Example 1)): higher than that of SNP
- Maximum vasodilation rate (porcine retinal artery; concentration 10^-4M, percentage with respect to the maximum vasodilation): 90%
- retinal vasodilating effect (porcine retinal artery; extracted porcine retinal artery, FIG. 1 (Example 1)): strong retinal vasodilating effect in a dose-dependent manner
- vasodilating action in comparison with known medications (porcine retinal artery; influence of the solvent excluded, Table 1): most powerful vasodilating action
- vasodilating effect in artery with vascular endothelium removed (denudation) compared with artery not denuded [1]: suppressed
- vasodilator response (rat pulmonary artery): did not occur

Molecule: Oc1ccc(C=Cc2cc(O)cc(O)c2)cc1 [Resveratrol]
- Maximum vasodilation rate (retinal blood vessel; concentration 10^-4M): 60%

Molecule: CCCCCCCC(=O)CC[C@@H]1[C@@H](C/C=C\CCCC(=O)O)[C@@H](O)C[C@H]1O [Unoprostone]
- Maximum vasodilation rate (retinal blood vessel; concentration 10^-5M): 30%

B1: Adiponectin (protein, UniProt Q15848 19-244, looked up)
Adiponectin: ETTTQGPGVLLPLPKGACTGWMAGIPGHPGHNGAPGRDGRDGTPGEKGEKGDPGLIGPKGDIGETGVPGAEGPRGFPGIQGRKGEPGEGAYVYRSAFSVGLETYVTIPNMPIRFTKIFYNQQNHYDGSTGKFHCNIPGLYYFAYHITVYMKDVKVSLFKKDKAMLFTYDQYQENNVDQASGSVLLHLEVGDQVWLQVYGEGERNGLYADNDNDSTFTGFLLYHDTN
- Maximum vasodilation rate (retinal blood vessel; concentration 8 μg/mL): 50%
